Assay results reported in ChEMBL document CHEMBL1142066, “In vitro effects of antimicrobial agents on planktonic and biofilm forms of Staphylococcus lugdunensis clinical isolates” (2007).
Converted amounts (≈) assume the structure as drawn. The source made the active and inactive calls. No cut-off for these calls is given here.

What was measured:
[1] = test system: Staphylococcus lugdunensis; experiment: Antimicrobial susceptibility of Staphylococcus lugdunensis IDRL2622 biofilms after 24 hrs assessed as bacterial regrowth; type: functional
[2] = test system: Staphylococcus lugdunensis; experiment: Antimicrobial susceptibility of Staphylococcus lugdunensis IDRL856 biofilms after 24 hrs assessed as bacterial regrowth; type: functional
[3] = test system: Staphylococcus lugdunensis; experiment: Antimicrobial susceptibility of Staphylococcus lugdunensis IDRL5258 biofilms after 24 hrs assessed as bacterial regrowth; type: functional
[4] = test system: Staphylococcus lugdunensis; experiment: Antimicrobial susceptibility of Staphylococcus lugdunensis IDRL2414 biofilms after 24 hrs assessed as bacterial regrowth; type: functional
[5] = test system: Staphylococcus lugdunensis; experiment: Antimicrobial susceptibility of Staphylococcus lugdunensis isolates by broth microdilution method; type: functional; conditions: for MIC50 / MIC90: Staphylococcus lugdunensis
[6] = test system: Staphylococcus lugdunensis; experiment: Antimicrobial susceptibility of Staphylococcus lugdunensis IDRL2526 biofilms after 24 hrs assessed as bacterial regrowth; type: functional
[7] = test system: Staphylococcus lugdunensis; experiment: Antimicrobial susceptibility of Staphylococcus lugdunensis IDRL2492 biofilms after 24 hrs assessed as bacterial regrowth; type: functional
[8] = test system: Staphylococcus lugdunensis; experiment: Antimicrobial susceptibility of Staphylococcus lugdunensis IDRL2639 biofilms after 24 hrs assessed as bacterial regrowth; type: functional
[9] = test system: Staphylococcus lugdunensis; experiment: Effect on biofilm formation of Staphylococcus lugdunensis assessed as percent non-biofilm forming isolates; type: functional; design: concentration or dose not given beside the values
[10] = test system: Staphylococcus lugdunensis; experiment: Antimicrobial susceptibility of Staphylococcus lugdunensis IDRL2640 biofilms after 24 hrs assessed as bacterial regrowth; type: functional
[11] = test system: Staphylococcus lugdunensis; experiment: Antimicrobial susceptibility of Staphylococcus lugdunensis IDRL2394 biofilms after 24 hrs assessed as bacterial regrowth; type: functional
[12] = test system: Staphylococcus lugdunensis; experiment: Increase in biofilm formation of Staphylococcus lugdunensis assessed as percent biofilm forming isolates; type: functional
[13] = test system: Staphylococcus lugdunensis; experiment: Antimicrobial susceptibility of Staphylococcus lugdunensis IDRL2588 biofilms after 24 hrs assessed as bacterial regrowth; type: functional
[14] = test system: Staphylococcus lugdunensis; experiment: Antimicrobial susceptibility of Staphylococcus lugdunensis IDRL5254 biofilms after 24 hrs assessed as bacterial regrowth; type: functional
[15] = test system: Staphylococcus lugdunensis; experiment: Antimicrobial susceptibility of Staphylococcus lugdunensis IDRL2664 biofilms after 24 hrs assessed as bacterial regrowth; type: functional
[16] = test system: Staphylococcus lugdunensis; experiment: Antimicrobial susceptibility of Staphylococcus lugdunensis IDRL5204 biofilms after 24 hrs assessed as bacterial regrowth; type: functional
[17] = test system: Staphylococcus lugdunensis; experiment: Antimicrobial susceptibility of Staphylococcus lugdunensis IDRL2554 biofilms after 24 hrs assessed as bacterial regrowth; type: functional
[18] = test system: Staphylococcus lugdunensis; experiment: Antimicrobial susceptibility of Staphylococcus lugdunensis IDRL5256 biofilms after 24 hrs assessed as bacterial regrowth; type: functional
[19] = test system: Staphylococcus lugdunensis; experiment: Decrease in biofilm formation of Staphylococcus lugdunensis assessed as percent biofilm forming isolates; type: functional; design: concentration or dose not given beside the values
Staphylococcus aureus [20] = experiment: Increase in biofilm formation of Staphylococcus aureus SA113 at 0.25 times MIC; type: functional, organism-based
[21] = test system: Staphylococcus epidermidis; experiment: Increase in biofilm formation of Staphylococcus epidermidis RP62A at 0.25 times MIC; type: functional, organism-based
[22] = test system: Staphylococcus epidermidis; experiment: Decrease in biofilm formation of Staphylococcus epidermidis RP62A; type: functional, organism-based
Staphylococcus aureus [23] = experiment: Decrease in biofilm formation of Staphylococcus aureus SA113; type: functional, organism-based
[24] = test system: Staphylococcus lugdunensis; experiment: Antimicrobial susceptibility of Staphylococcus lugdunensis IDRL5204 isolate from prosthetic joint infection patient by broth microdilution method; type: functional
[25] = test system: Staphylococcus lugdunensis; experiment: Stimulation of Staphylococcus lugdunensis IDRL5256 biofilm formation; type: functional, organism-based

Row | MIC50 [5] [µg/mL] | MIC90 [5] [µg/mL] | Compound | BBC [1] [µg/mL] | BBC [2] [µg/mL] | BBC [3] | BBC [4] [µg/mL] | MBC50 [5] [µg/mL] | MBC90 [5] [µg/mL] | BBC [6] [µg/mL] | BBC [7] [µg/mL] | BBC [8] [µg/mL] | Activity [9] [%] | BBC [10] [µg/mL] | BBC [11] [µg/mL] | Activity [12] [%] | BBC [13] [µg/mL] | BBC [14] [µg/mL] | BBC [16] [µg/mL] | BBC [18] [µg/mL] | Activity [19] [%] | further results
1 | 0.125 (≈ 0.0771 µM) | 0.25 (≈ 0.154 µM) | CCCCCCCCCC(=O)N[C@@H](Cc1c[nH]c2ccccc12)C(=O)N[C@H](CC(N)=O)C(=O)N[C@@H](CC(=O)O)C(=O)N[C@@H]1C(=O)NCC(=O)N[C@@H](CCCN)C(=O)N[C@@H](CC(=O)O)C(=O)N[C@H](C)C(=O)N[C@@H](CC(=O)O)C(=O)NCC(=O)N[C@H](CO)C(=O)N[C@@H]([C@H](C)CC(=O)O)C(=O)N[C@@H](CC(=O)c2ccccc2N)C(=O)O[C@@H]1C | 1 | 16 | 16 µg/mL | >128 | 0.5 (≈ 0.309 µM) | 1 (≈ 0.617 µM) | 8 | 8 | 32 | 87 | >128 | 64 | 13 | 128 | 128 | 8 | 64 | 0 | BBC [15]: 32 µg/mL; BBC [17]: 4 µg/mL
2 | 0.25 (≈ 0.55 µM) | 0.5 (≈ 1.1 µM) | Cc1nnc(SCC2=C(C(=O)O)N3C(=O)[C@@H](NC(=O)Cn4cnnn4)[C@H]3SC2)s1 [CEFAZOLIN] | 2 | >128 | >128 µg/mL | >128 | 0.5 (≈ 1.1 µM) | 1 (≈ 2.2 µM) | >128 | >128 | 4 | 80 | >128 | >128 | 13 | >128 | >128 | 1 | >128 | 7 | BBC [15]: 8 µg/mL; BBC [17]: >128 µg/mL
3 | 0.125 (≈ 0.311 µM) | 0.25 (≈ 0.623 µM) | COc1c(N2C[C@@H]3CCCN[C@@H]3C2)c(F)cc2c(=O)c(C(=O)O)cn(C3CC3)c12 [MOXIFLOXACIN] | 2 | 0.25 | <=0.125 ug ml-1 | 0.5 | 0.125 (≈ 0.311 µM) | 0.25 (≈ 0.623 µM) | 0.5 | 0.25 | 0.25 | 33 | 2 | 2 | 27 | 0.5 | 0.5 | 0.5 | 1 | 40 | BBC [15]: <=0.125 ug ml-1; BBC [17]: <=0.125 ug ml-1
4 | ≤ 0.03 | ≤ 0.03 | CO[C@H]1/C=C/O[C@@]2(C)Oc3c(C)c(O)c4c(O)c(c(/C=N/N5CCN(C)CC5)c(O)c4c3C2=O)NC(=O)/C(C)=C\C=C\[C@H](C)[C@H](O)[C@@H](C)[C@@H](O)[C@@H](C)[C@H](OC(C)=O)[C@@H]1C [RIFAMPIN] | 64 | 8 | 8 µg/mL | 0.25 | 8 (≈ 9.72 µM) | >32 | 32 | 64 | 32 | 93 | 64 | 0.25 | 7 | 64 | 64 | 32 | 32 | 0 | 

More lines, now with the values behind:

Row | Compound | MIC50 [5] [µg/mL] | MIC90 [5] [µg/mL] | BBC [1] [µg/mL] | BBC [2] [µg/mL] | BBC [3] | BBC [4] [µg/mL] | MBC50 [5] [µg/mL] | MBC90 [5] [µg/mL] | BBC [6] [µg/mL] | BBC [7] [µg/mL] | BBC [8] [µg/mL] | Activity [9] [%] | BBC [10] [µg/mL] | BBC [11] [µg/mL] | Activity [12] [%] | BBC [13] [µg/mL] | BBC [14] [µg/mL] | BBC [16] [µg/mL] | BBC [18] [µg/mL] | Activity [19] [%] | further results
5 | CC(=O)NC[C@H]1CN(c2ccc(N3CCOCC3)c(F)c2)C(=O)O1 [LINEZOLID] | 1 (≈ 2.96 µM) | 1 (≈ 2.96 µM) | >128 | >128 | >128 µg/mL | >128 | >128 | >128 | >128 | >128 | >128 | 20 | >128 | >128 | 0 | >128 | >128 | 4 | >128 | 80 | Activity (Staphylococcus aureus [20]): Active; Activity [21]: Active; BBC [15]: >128 µg/mL; BBC [17]: >128 µg/mL
6 | CCOc1ccc2ccccc2c1C(=O)N[C@@H]1C(=O)N2[C@@H]1SC(C)(C)[C@@H]2C(=O)O [NAFCILLIN] | 0.5 (≈ 1.21 µM) | 0.5 (≈ 1.21 µM) | 8 | 16 | 0.5 µg/mL | >128 | 0.5 (≈ 1.21 µM) | 2 (≈ 4.83 µM) | 4 | 8 | 1 | 7 | >128 | >128 | 93 | 8 | >128 | 0.5 | >128 | 0 | Activity [22]: Active; BBC [15]: 2 µg/mL; BBC [17]: 2 µg/mL; Activity (Staphylococcus aureus [23]): Active
7 | Cc1cc(NS(=O)(=O)c2ccc(N)cc2)no1 [SULFAMETHOXAZOLE] |  |  |  |  |  |  |  |  |  |  |  |  |  |  |  |  |  |  |  |  | MIC [24]: 304 µg/mL (≈ 1200 µM)
8 | CN(C)[C@@H]1C(O)=C(C(N)=O)C(=O)[C@@]2(O)C(O)=C3C(=O)c4c(O)cccc4[C@@](C)(O)[C@H]3C[C@@H]12 [TETRACYCLINE] | 0.25 (≈ 0.563 µM) | 1 (≈ 2.25 µM) | 128 | 128 | 64 µg/mL | 128 | >32 | >32 | 128 | 128 | 16 | 0 | 128 | 128 | 7 | 128 | 128 | 1 | 128 | 93 | Activity [25]: Active; BBC [15]: 128 µg/mL; BBC [17]: 128 µg/mL
9 | COc1cc(Cc2cnc(N)nc2N)cc(OC)c1OC [TRIMETHOPRIM] |  |  |  |  |  |  |  |  |  |  |  |  |  |  |  |  |  |  |  |  | MIC [24]: 16 µg/mL (≈ 55.1 µM)
